Assay results from patent US10814021B2, “Paramagnetic boron-doped graphene quantum dots and their application for safe magnetic resonance imaging” (priority 2017, dated 2020).
“Also recorded” adds a separate entry of the source.

What was measured:
[1] = tested on: C57BL/6 wild-type mice; experiment: In vivo abdominal T1-weighted MR imaging, SL-BGQDs vs Gd-DTPA
Text: T1-weighted MR images of the cross-sectional views of mice centered within the abdomen were acquired before and after contrast agent injection.
(§1) Mice were anesthetized with isoflurane (Piramal Healthcare) and secured in a coil-integrated respiratory monitoring system (SA Instruments; MR-compatible small animal monitoring and gating system) with nose-cone for oxygen/anesthetic, ear-bar head holder, circulating temperature control bath, and residual gas extraction. Abdominal scans were acquired using rapid acquisition with refocused echoes (RARE) T1-weighted (TR/TE=691/5.5 ms, in-plane resolution 93×62 μm^2, matrix 256×284) sequences and slices placed in the transverse plane with 0.5 mm slice thickness and 0.75 mm interslice gaps allowing for coverage from the liver to the pelvic floor. Cranial scans were acquired over the entire head with a 3-dimensional, T1-weighted fast low angle shot (FLASH) scan sequence (TR/TE=16.2/2.7 ms, resolution 106×108×152 μm^3, matrix 284×186×132). Images from this cranial scan sequence were processed using a maximum intensity projection with a 3 mm slab thickness.

[2] = comparison values quoted in text; field not stated; cited from earlier work
[3] = tested on: C57BL/6 wild-type mice; experiment: In vivo cranial T1-weighted MR imaging (neurovasculature), SL-BGQDs vs Gd-DTPA; settings: 10 min after i.v. 200 μL, 5 mg mL^−1
Text: as §1

[4] = In vitro MR imaging (T1/T2 relaxivity) of SL-BGQDs and Gd-DTPA in PBS at 14 T; format: physicochemical; settings: SL-BGQDs per boron molar concentration
Method: To evaluate the applicability of using SL-BGQDs as contrast agents for MR imaging, quantitative T1 and T1-weighted MR imaging scan sequences were acquired of SL-BGQD samples in PBS at magnetic field strength of 14T. […] 1/T1 was then plotted against the boron molar concentration in SL-BGQDs (FIG. 13D).
T1- and T2-weighted imaging and quantitative T1 and T2 MR imaging scan sequences were used to investigate the contrast enhancing capabilities of SL-BGQDs. MR imaging was conducted on a Bruker Avance III 600 MHz, 14 T wide bore spectrometer. […] The vials were fixed in place inside a water reservoir; the water served as a homogeneous background signal to minimize magnetic susceptibility variations near samples. The secured vials were placed in a 25 mm single-channel ^1H radiofrequency receiving coil (PB Micro 2.5). […] Quantitative T2 values were measured using a multi-spin multi-echo (MSME) pulse sequence with TR=2500 ms, TE=6.7+6n ms (n=0-16), and 78×156 μm^2 in-plane resolution with 0.5 mm slice thickness for 14 slices. T1-weighted images were acquired with a RARE pulse sequence with TE=5.49 ms, TR=531 ms, 78×52 μm^2 in-plane resolution and 0.5 mm slice thickness for 10 slices. […] T1 values were determined within a circular, 100-voxel region of interest.

In the case of `O=C([O-])CN(CCN(CC(=O)[O-])CC(=O)O)CCN(CC(=O)[O-])CC(=O)O.[Gd+3]` [Gd-DTPA, gadolinium diethylene penta-acetic acid], the “T1-weighted contrast enhancement in any organ at 60 min post-injection” value ([1]; 60 min post-injection, i.v. 200 μL, 1 mg mL^−1) is reported as “completely nullified; also recorded: no T1-weighted signal increase was detected”, the “time of peak contrast enhancement post-injection” value ([1]; i.v. 200 μL, 1 mg mL^−1) is reported as at most 10 min and the “signal enhancement in renal cortex, renal pelvis and gall bladder, post- vs pre-injection” value ([1]; i.v. 200 μL, 1 mg mL^−1, 14 T) is reported as “substantial signal enhancement”. For the same molecule, the imaging time ([1]; summary statement) was “about 10 min”, the “r1 relaxivity of comparison T1 CAs” value [2] was 5.39 mM⁻¹ s⁻¹ and the “contrast of cranial vasculature, post- vs pre-injection” value [3] was “no apparent change in contrast”. For the same molecule, the “longitudinal relaxivity, r1” value [4] was 4.3 mM⁻¹ s⁻¹.
